Data reported in patent US20090281278A1, “MODIFIED MOLECULES WHICH PROMOTE HEMATOPOIESIS” (priority 2006, published 2009).
Entries after “also recorded” stand apart in the source; their conditions may differ. Bridges are numbered along the chain shown (N, C = ends). Where no end group is shown, it is not given here. [ ]: non-standard residue; d: D form. 1Nal = N[C@@H](Cc1cccc2ccccc12)C(=O)O

Tested on: TF-1 cells
Test: TF-1 proliferation assay (MTT/MTS, number of viable cells)
Format: cell-based, human
Conditions: for efficacy and potency (EPO mimetic activity) compared with reference peptides: TF-1 proliferation, normalized plots
Method: An experiment was performed in a standard TF-1 cell assay as recommended by the European Pharmacopoe for the determination of EPO-like activity in vitro (please also see below). Basically, TF-1 cells (their proliferation being dependent from the presence of EPO-like activity) are cultured in the presence various concentrations of EPO or EPO-mimetic substances. The resulting cell numbers are quantified using colorimetric MTT-assay and photometric measurements.
TF1 cells in logarithmic growth phase (2×10^5-1×10^6 cells/ml grown in RPMI with 20% fetal calf serum (FCS) and 0.5 ng/ml IL-3) were counted, and the number of cells needed to perform an assay were centrifuged (5 min. 1500 rpm) and resuspended in RPMI with 5% FCS without IL-3 at 300 000 cells/ml. Cells were precultured in this (starvation) medium without IL-3 for 48 hours. Before starting the assay the cells were counted again.
Shortly before starting the assay stock solutions of peptides and EPO were prepared. Peptides were weighed and dissolved in RPMI with 5% FCS up to a concentration of 1 mM, 467 μM or 200 μM. EPO stock solutions were 10 nM or 20 nM. 292 μl of these stock solutions were pipetted into one well of a 96 well culture plate—one plate was taken for each substance to be tested. Two hundred μl of RPMI with 5% FCS were pipetted into seventeen other wells in each plate. Ninety-two μl of stock solution were pipetted into a well containing 200 μl medium. The contents were mixed, and 92 μl from this well was transferred to the next, and so forth. This way a dilution series (18 dilutions) of each substance was prepared such that in each consecutive well the concentration was 1:√10 of the concentration in the well before that. From each well 3×50 μl was transferred to three empty wells. This way each concentration of substance was measured in quadruplicate. Note that the uppermost and lowermost line of wells of each plate was left void.
Pre-treated (starved) cells were centrifuged (5 min. 1500 rpm) and resuspended in RPMI with 5% FCS at a concentration of 200 000 cells per ml. […]
To measure the number of live cells per well, ready-to-use […] (Promega, CellTiter 96 Aqueous One Solution Cell Proliferation Assay) was thawed in a 37° C. water bath. […] Twenty-five μl of a 10% SDS solution was added, and plates were measured in an ELISA reader (Genios, Tecan). […]
For optimal results TF-1 cells should be cultured for two days in the absence of any cytokine (starved) before starting the assay. Three days after starting the assay, cell proliferation is measured indirectly by assaying the number of viable cells.
A tetrazolium reagent, called MTS, is added which is reduced to coloured formazan. […] The amount of formazan is measured spectrophotometrically. […]

Row | Substance | agonist behaviour (maximal response compared with EPO) (peptides in their monomeric form) | efficacy and potency (EPO mimetic activity) compared with reference peptides
1 | GGTYSCHFGPLTWVCKPQGG [EMP1, reference compound] | partial agonists | –
2 | AGEM40—HES: peptide (AGEM40) HESylated according to the supravalence principle (Ac-CGGTYSCHFGKLT[1Nal]VCKKQRGGGTYSCHFGKLT[1Nal]VCKKQRG-NH2; disulfide 7-16, 27-36 (inferred); not fully specified (residue 1); also: HES (hydroxyethyl starch) conjugate, maleimide-linked) | – | highly effective and potent
3 | Ac-GGTYSCHFGKLTWVCKKQGG (cysteine pairing not given here) [BB49] | – | efficacy and potency in the same range as EMP1
4 | Ac-GGTYSCHFGKLT-Na1-VCKKQRG-Am (Ac-GGTYSCHFGKLT[1Nal]VCKKQRG-NH2; cysteine pairing not given here) [BB68] | – | even more effective than EMP1 and BB49; also recorded: improved effect
